Measured values published in patent publication US6670370B1 (priority 2001, dated 2003).
Where a name gives a salt, the structure may show the parent alone. Read-outs that look alike come from different tables or passages of the source.

Experiments:
[1] = background statement on known substance, cited from earlier work
[2] = Solubility in water (descriptive); conditions: physical properties stated in detailed description
[3] = Tap density of milled dextromethorphan tannate powders; assay type: physicochemical; conditions: dried to moisture level (K.F.) of 5%, milled to particle size of about 100 mesh

Compound	solubility in water [1]	Tap Density [3] [g/cc]	also measured
COc1ccc2c(c1)[C@]13CCCC[C@@H]1[C@H](C2)N(C)CC3 [dextromethorphan free base, 3-methoxy-17-methyl-9α, 13α, 14α-morphinan]	insoluble	–	solubility in water [2]: insoluble
COc1ccc2c(c1)[C@]13CCCC[C@@H]1[C@H](C2)N(C)CC3 [hydrobromide monohydrate salt, dextromethorphan hydrobromide monohydrate]	–	–	solubility in water ([1]; hydrobromide monohydrate): soluble
O=C(OC[C@H]1O[C@@H](OC(=O)c2cc(O)c(O)c(OC(=O)c3cc(O)c(O)c(O)c3)c2)[C@H](OC(=O)c2cc(O)c(O)c(OC(=O)c3cc(O)c(O)c(O)c3)c2)[C@@H](OC(=O)c2cc(O)c(O)c(OC(=O)c3cc(O)c(O)c(O)c3)c2)[C@@H]1OC(=O)c1cc(O)c(O)c(OC(=O)c2cc(O)c(O)c(O)c2)c1)c1cc(O)c(O)c(OC(=O)c2cc(O)c(O)c(O)c2)c1 [tannic acid]	highly soluble	–	–
dextromethorphan tannate [Commercially available D-M Tannate]	–	0.313	–
dextromethorphan tannate [D-M Tannate of the invention]	–	0.723	–
dextromethorphan tannate [D-M Tannate synthesized by IPA route (Example 5)]	–	0.321	–
